Measured values as given in the CheMixHub ionic liquid set.
± gives the uncertainty stated by the source.

Experiment: xn = mol fraction of the nth substance listed

CC(N)C(=O)[O-].COCCCCn1cc[n+](C)c1 + CS(C)=O
100 kPa
Details	viscosity [mPa·s]
288.15 K, x1 = 0.1996	11.74 ± 0.14
288.15 K, x1 = 0.3012	22.04 ± 0.3
288.15 K, x1 = 0.5996	96.5 ± 2.4
288.15 K, x1 = 0.8997	304 ± 19
293.15 K, x1 = 0.1996	11.35 ± 0.11
293.15 K, x1 = 0.3012	19.11 ± 0.21
293.15 K, x1 = 1	266 ± 16
298.15 K, x1 = 0.1996	8.85 ± 0.11
303.15 K, x1 = 0.1996	7.37 ± 0.08
303.15 K, x1 = 0.5996	41.72 ± 0.54
308.15 K, x1 = 0.3985	16.23 ± 0.19
308.15 K, x1 = 0.5996	33.51 ± 0.42
308.15 K, x1 = 0.6966	44.96 ± 0.57
308.15 K, x1 = 0.7973	60.65 ± 0.77
313.15 K, x1 = 0.6966	36.01 ± 0.46
318.15 K, x1 = 0.1009	3.18 ± 0.04
318.15 K, x1 = 0.4922	15.18 ± 0.18
318.15 K, x1 = 0.5996	21.68 ± 0.27
318.15 K, x1 = 0.7973	37.1 ± 0.51

CCCC[N+]1(C)CCCC1.O=S(=O)([O-])C(F)(F)F + CC#N
viscosity [mPa·s], 101 kPa
Details	288.15 K	293.15 K	298.15 K
x1 = 0.0008322	0.377 ± 0.008	0.358 ± 0.008	0.34 ± 0.007
x1 = 0.001153	0.379 ± 0.008	0.359 ± 0.008	0.342 ± 0.007
x1 = 0.001607	0.381 ± 0.008	0.361 ± 0.008	0.345 ± 0.007
x1 = 0.002041	0.383 ± 0.008	0.364 ± 0.008	0.347 ± 0.007
x1 = 0.002439	0.386 ± 0.008	0.366 ± 0.008	0.349 ± 0.007
x1 = 0.002832	0.388 ± 0.008	0.368 ± 0.008	0.351 ± 0.007
x1 = 0.003272	0.39 ± 0.008	0.369 ± 0.008	0.353 ± 0.007
x1 = 0.003684	0.392 ± 0.008	0.372 ± 0.008	0.355 ± 0.008
x1 = 0.004131	0.394 ± 0.008	0.374 ± 0.008	0.357 ± 0.008
x1 = 0.00964	0.423 ± 0.009	0.404 ± 0.009	0.386 ± 0.008
x1 = 0.01639	0.458 ± 0.01	0.437 ± 0.009	0.417 ± 0.009
x2 = 0.9756	0.498 ± 0.011	0.473 ± 0.01	0.45 ± 0.01

CCCC[n+]1ccn(C)c1.CS(=O)(=O)[O-] + O
101 kPa
Details	electrical conductivity [S/m]	viscosity [mPa·s]
298.15 K, x2 = 0.6542	–	31.9 ± 1.5
298.15 K, x2 = 0.7014	–	25.2 ± 1.2
298.15 K, x2 = 0.7494	–	19.09 ± 0.9
298.15 K, x2 = 0.796	1.23 ± 0.061	–
298.15 K, x2 = 0.951	4.06 ± 0.2	–
298.15 K, x2 = 0.975	–	1.643 ± 0.077
299.15 K, x1 = 0.008	2.11 ± 0.11	–
299.15 K, x2 = 0.892	2.96 ± 0.15	–
299.15 K, x2 = 0.951	4.12 ± 0.21	–
300.15 K, x1 = 0.004	1.24 ± 0.062	–
301.15 K, x2 = 0.861	2.53 ± 0.13	–
302.15 K, x2 = 0.861	2.61 ± 0.13	–
305.15 K, x1 = 0.004	1.37 ± 0.068	–
305.15 K, x2 = 0.861	2.84 ± 0.14	–
306.15 K, x1 = 0.004	1.4 ± 0.07	–
307.15 K, x1 = 0.008	2.51 ± 0.13	–
308.15 K, x1 = 0.019	4.06 ± 0.2	–
308.15 K, x2 = 0.861	3.08 ± 0.15	–
308.15 K, x2 = 0.968	4.94 ± 0.25	–
309.15 K, x2 = 0.968	5.03 ± 0.25	–
310.15 K, x1 = 0.019	4.22 ± 0.21	–
310.15 K, x2 = 0.861	3.25 ± 0.16	–
310.15 K, x2 = 0.892	4.03 ± 0.2	–
310.15 K, x2 = 0.968	5.11 ± 0.26	–
311.15 K, x2 = 0.861	3.35 ± 0.17	–
313.15 K, x2 = 0.892	4.42 ± 0.22	–
313.15 K, x2 = 0.9004	–	3.71 ± 0.2
315.15 K, x2 = 0.968	5.63 ± 0.28	–
316.15 K, x2 = 0.951	6.44 ± 0.32	–
317.15 K, x1 = 0.004	1.7 ± 0.085	–
317.15 K, x2 = 0.951	6.52 ± 0.33	–
317.15 K, x2 = 0.968	5.83 ± 0.29	–
318.15 K, x2 = 0.929	5.89 ± 0.29	–
319.15 K, x2 = 0.861	4.14 ± 0.21	–
319.15 K, x2 = 0.968	6.08 ± 0.3	–
320.15 K, x1 = 0.004	1.79 ± 0.09	–
320.15 K, x1 = 0.019	5.15 ± 0.26	–
320.15 K, x2 = 0.892	5.23 ± 0.26	–
320.15 K, x2 = 0.968	6.17 ± 0.31	–
321.15 K, x2 = 0.968	6.3 ± 0.32	–
322.15 K, x2 = 0.892	5.48 ± 0.27	–
322.15 K, x2 = 0.929	6.42 ± 0.32	–
323.15 K, x2 = 0.8015	–	6.16 ± 0.43
323.15 K, x2 = 0.9503	–	1.503 ± 0.071
323.15 K, x2 = 0.951	7.08 ± 0.35	–
324.15 K, x1 = 0.004	1.91 ± 0.096	–
324.15 K, x1 = 0.008	3.39 ± 0.17	–
324.15 K, x1 = 0.019	5.48 ± 0.27	–
324.15 K, x2 = 0.892	5.72 ± 0.29	–
325.15 K, x1 = 0.008	3.45 ± 0.17	–
325.15 K, x1 = 0.019	5.57 ± 0.28	–
325.15 K, x2 = 0.929	6.93 ± 0.35	–
326.15 K, x1 = 0.004	1.98 ± 0.099	–
326.15 K, x2 = 0.929	6.92 ± 0.35	–
326.15 K, x2 = 0.968	6.88 ± 0.34	–
327.15 K, x2 = 0.861	5.02 ± 0.25	–
327.15 K, x2 = 0.929	7.05 ± 0.35	–
328.15 K, x1 = 0.019	5.74 ± 0.29	–
328.15 K, x2 = 0.951	7.6 ± 0.38	–
329.15 K, x2 = 0.968	7.25 ± 0.36	–
331.15 K, x1 = 0.019	6.08 ± 0.3	–
331.15 K, x2 = 0.861	5.49 ± 0.28	–
332.15 K, x2 = 0.929	7.74 ± 0.39	–
332.15 K, x2 = 0.951	8.16 ± 0.41	–
333.15 K, x2 = 0.7014	–	8.05 ± 0.39
333.15 K, x2 = 0.8015	–	4.67 ± 0.22
333.15 K, x2 = 0.9004	–	2.3 ± 0.11
333.15 K, x2 = 0.9503	–	1.24 ± 0.058
333.15 K, x2 = 0.968	7.66 ± 0.38	–
334.15 K, x2 = 0.968	7.78 ± 0.39	–
335.15 K, x1 = 0.004	2.24 ± 0.11	–
336.15 K, x1 = 0.004	2.27 ± 0.11	–
336.15 K, x2 = 0.951	8.7 ± 0.43	–
337.15 K, x2 = 0.861	6.31 ± 0.32	–
337.15 K, x2 = 0.929	8.44 ± 0.42	–
338.15 K, x1 = 0.019	6.52 ± 0.33	–
338.15 K, x2 = 0.861	6.33 ± 0.32	–
338.15 K, x2 = 0.951	8.96 ± 0.45	–
339.15 K, x2 = 0.968	8.41 ± 0.42	–
341.15 K, x2 = 0.892	7.89 ± 0.4	–
342.15 K, x1 = 0.004	2.44 ± 0.12	–
342.15 K, x2 = 0.861	6.89 ± 0.34	–
342.15 K, x2 = 0.892	7.96 ± 0.4	–
343.15 K, x1 = 0.004	2.46 ± 0.12	–
343.15 K, x2 = 0.6542	–	7.44 ± 0.37
343.15 K, x2 = 0.8521	–	2.67 ± 0.13
343.15 K, x2 = 0.892	8.05 ± 0.4	–
344.15 K, x2 = 0.929	9.45 ± 0.47	–
345.15 K, x1 = 0.004	2.53 ± 0.13	–
345.15 K, x2 = 0.951	10 ± 0.5	–
345.15 K, x2 = 0.968	8.98 ± 0.45	–
346.15 K, x1 = 0.008	4.56 ± 0.23	–
346.15 K, x2 = 0.951	10.1 ± 0.51	–
347.15 K, x2 = 0.861	7.63 ± 0.38	–
347.15 K, x2 = 0.892	8.62 ± 0.43	–
348.15 K, x1 = 0.004	2.61 ± 0.13	–
348.15 K, x2 = 0.892	8.76 ± 0.44	–
349.15 K, x2 = 0.861	7.79 ± 0.39	–
349.15 K, x2 = 0.951	10.6 ± 0.53	–
350.15 K, x1 = 0.019	7.75 ± 0.39	–
352.15 K, x1 = 0.019	7.98 ± 0.4	–
352.15 K, x2 = 0.951	10.9 ± 0.54	–
353.15 K, x1 = 0.004	2.76 ± 0.14	–
353.15 K, x2 = 0.861	8.33 ± 0.42	–
353.15 K, x2 = 0.951	11.1 ± 0.56	–
354.15 K, x2 = 0.861	8.44 ± 0.42	–
355.15 K, x1 = 0.004	2.83 ± 0.14	–
355.15 K, x2 = 0.968	10.3 ± 0.52	–
356.15 K, x1 = 0.004	2.82 ± 0.14	–
357.15 K, x1 = 0.004	2.86 ± 0.14	–
357.15 K, x2 = 0.929	11.3 ± 0.56	–
357.15 K, x2 = 0.951	11.3 ± 0.57	–
358.15 K, x2 = 0.892	10.1 ± 0.51	–
